In patent US8153818B2, “Triazolyl phenyl benzenesulfonamides” (ChemoCentryx, Inc., priority 2006, dated 2012):

Target: T1, CCR9 (Homo sapiens, UniProt P51686)
T1 construct: chemokine expressing cells (such as THP-1 cells for CCR2 assay or MOLT-4 cells for CCR9 assay); host or cells: MOLT-4
T1 sequence (P51686 1-369): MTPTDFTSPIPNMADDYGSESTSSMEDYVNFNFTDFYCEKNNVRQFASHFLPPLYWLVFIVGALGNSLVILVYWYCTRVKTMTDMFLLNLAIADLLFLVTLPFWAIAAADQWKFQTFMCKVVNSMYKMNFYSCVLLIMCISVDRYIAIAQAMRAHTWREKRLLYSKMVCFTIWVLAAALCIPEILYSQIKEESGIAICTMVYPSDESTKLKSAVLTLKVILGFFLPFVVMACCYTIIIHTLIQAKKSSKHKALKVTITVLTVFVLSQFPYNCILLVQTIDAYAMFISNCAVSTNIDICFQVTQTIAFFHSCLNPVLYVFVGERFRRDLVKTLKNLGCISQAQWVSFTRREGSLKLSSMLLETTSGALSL
Assay: CCR9 activity in one of the chemotaxis, binding or calcium mobilization assays
Format: cell-based
Settings: assay not specified per compound
Procedure: Conventional migration assay was used to determine the efficacy of potential receptor antagonists in blocking migration mediated through chemokines (such as CCR2 or CCR9). This assay was routinely performed using the ChemoTX® microchamber system with a 5-μm pore-sized polycarbonate membrane. To begin such an assay, chemokine expressing cells (such as THP-1 cells for CCR2 assay or MOLT-4 cells for CCR9 assay) were harvested by centrifugation of cell suspension at 1000 RPM on a GS-6R Beckman centrifuge. The cell pellet was resuspended in chemotaxis buffer (HBSS with 0.1% BSA) at 10×10^6 cells/mL for CCR2 assay (5×10^6 cells/mL for CCR9 assay). Test compounds at desired concentrations were prepared from 10 mM stock solutions by serial dilutions in chemotaxis buffer. An equal volume of cells and compounds were mixed and incubated at room temperature for 15 minutes. Afterwards, 20 μL of the mixture was transferred onto the porous membrane of a migration microchamber, with 29 μL of chemokine ligand (0.1 nM chemokine MCP-1 protein for CCR2 assay or […] chemokine TECK protein for CCR9 assay) placed at the lower chamber. Following an incubation at 37° C. (90-minute for CCR2; 150-minute for CCR9), during which cells migrated against the chemokine gradient, the assay was terminated by removing the cell drops from atop the filter. To quantify cells migrated across the membrane, 5 μL of 7×CyQUANT® solution was added to each well in the lower chamber, and the fluorescence signal measured on a Spectrafluor Plus fluorescence plate reader (TECAN, Durham, N.C.). The degree of inhibition was determined by comparing migration signals between compound-treated and untreated cells. IC50 calculation was further performed by non-linear squares regression analysis using Graphpad Prism (Graphpad Software, San Diego, Calif.).
Calcium flux assay measures an increase in intracellular calcium following ligand-induced receptor activation. In the screen of chemokine antagonists, it was used as a secondary assay carried out on a FLIPR® machine (Molecular Devices, Mountain View, Calif.). To begin an assay, chemokine expressing cells (such as THP-1 cells for CCR2 assay or MOLT-4 cells for CCR9 assay) were harvested by centrifugation of cell suspension, and resuspended to 1.5×10^6 cells/mL in HBSS (with 1% fetal calf serum). Cells were then labeled with a calcium indicator dye Fluo-4 AM for 45 minutes at 37° C. with gentle shaking. Following incubation, cells were pelletted, washed once with HBSS and resuspended in the same buffer at a density of 1.6×10^6 cells/mL. One hundred microliters of labeled cells were mixed with 10 μL of test compound at the appropriate concentrations on an assay plate. Chemokine protein (MCP-1 at a final concentration of 0.1 nM for CCR2 assay or TECK at a final concentration of 25 nM for CCR9 assay) to activate the receptor. The degree of inhibition was determined by comparing calcium signals between compound-treated and untreated cells. IC50 calculations were further performed by non-linear squares regression analysis using Graphpad Prism (Graphpad Software, San Diego, Calif.). […]
In the tables below, structures and activity are provided for representative compounds described herein. Activity is provided as follows for either or both of the chemotaxis assay and/or calcium mobilization assays, described above.

IC50 | Compound
< 1000 nM | CCn1c(C)nnc1-c1cc(Cl)ccc1NS(=O)(=O)c1ccc(OC(C)C)cc1 [Compound 17, N-(4-chloro-2-(4-ethyl-5-methyl-4H-1,2,4-triazol-3-yl)phenyl)-4-isopropoxybenzenesulfonamide]
< 1000 nM | CC(C)n1cnnc1-c1ccc(Cl)cc1NS(=O)(=O)c1ccc(C(C)(C)C)cc1 [Compound 18, 4-tert-butyl-N-(5-chloro-2-(4-isopropyl-4H-1,2,4-triazol-3-yl)phenyl)benzenesulfonamide]
< 1000 nM | Cc1nnc(-c2cc(Cl)ccc2NS(=O)(=O)c2ccc(C(C)(C)C)cc2)n1CC(C)C [Compound 19, 4-tert-butyl-N-(4-chloro-2-(4-isobutyl-5-methyl-4H-1,2,4-triazol-3-yl)phenyl)benzenesulfonamide]
< 1000 nM | Cc1nnc(-c2cc(Cl)ccc2NS(=O)(=O)c2ccc(C(C)(C)C)cc2)n1C1CCNCC1 [Compound 20]
< 1000 nM | COCc1nnc(-c2cc(Cl)ccc2NS(=O)(=O)c2ccc(C(C)(C)C)cc2)n1C1CCOCC1 [Compound 21, 4-tert-butyl-N-(4-chloro-2-(5-(methoxymethyl)-4-(tetrahydro-2H-pyran-4-yl)-4H-1,2,4-triazol-3-yl)phenyl)benzenesulfonamide]
< 1000 nM | CCn1cnnc1-c1cc(F)c(F)cc1NS(=O)(=O)c1ccc(C(C)(C)C)cc1 [Compound 22, 4-tert-butyl-N-(2-(4-ethyl-4H-1,2,4-triazol-3-yl)-4,5-difluorophenyl)benzenesulfonamide]
< 1000 nM | CCn1cnnc1-c1ccc(F)cc1NS(=O)(=O)c1ccc(C(C)(C)C)cc1 [Compound 23, 4-tert-butyl-N-(2-(4-ethyl-4H-1,2,4-triazol-3-yl)-5-fluorophenyl)benzenesulfonamide]
< 1000 nM | Cc1nnc(-c2ccc(F)cc2NS(=O)(=O)c2ccc(C(C)(C)C)cc2)n1C(C)C [Compound 24, 4-tert-butyl-N-(5-fluoro-2-(4-isopropyl-5-methyl-4H-1,2,4-triazol-3-yl)phenyl)benzenesulfonamide]
< 1000 nM | CCn1cnnc1-c1c(NS(=O)(=O)c2ccc(C(C)(C)C)cc2)ccc(Cl)c1F [Compound 25, 4-tert-butyl-N-(4-chloro-2-(4-ethyl-4H-1,2,4-triazol-3-yl)-3-fluorophenyl)benzenesulfonamide]
< 1000 nM | Cc1nnc(-c2cc(Cl)ccc2NS(=O)(=O)c2ccc(C(C)(C)C)cc2)n1[C@@H](C)CO [Compound 26]
< 1000 nM | CC(=O)NCCn1c(C)nnc1-c1cc(Cl)ccc1NS(=O)(=O)c1ccc(C(C)(C)C)cc1 [Compound 27, N-(2-(3-(2-(4-tert-butylphenylsulfonamido)-5-chlorophenyl)-5-methyl-4H-1,2,4-triazol-4-yl)ethyl)acetamide]
< 1000 nM | Cc1nnc(-c2c(NS(=O)(=O)c3ccc(C(C)(C)C)cc3)ccc(Cl)c2F)n1C [Compound 28, 4-tert-butyl-N-(4-chloro-2-(4,5-dimethyl-4H-1,2,4-triazol-3-yl)-3-fluorophenyl)benzenesulfonamide]
< 1000 nM | CCn1c(C)nnc1-c1c(NS(=O)(=O)c2ccc(C(C)(C)C)cc2)ccc(Cl)c1F [Compound 29, 4-tert-butyl-N-(4-chloro-2-(4-ethyl-5-methyl-4H-1,2,4-triazol-3-yl)-3-fluorophenyl)benzenesulfonamide]
< 1000 nM | Cn1cnnc1-c1cc(Cl)ccc1NS(=O)(=O)c1ccc(C(C)(C)C)cc1 [Compound 30, 4-tert-butyl-N-(4-chloro-2-(4-methyl-4H-1,2,4-triazol-3-yl)phenyl)benzenesulfonamide]
< 1000 nM | CCn1cnnc1-c1cc(Cl)ccc1NS(=O)(=O)c1ccc(C(C)(C)C)cc1 [Compound 31, 4-tert-butyl-N-(4-chloro-2-(4-ethyl-4H-1,2,4-triazol-3-yl)phenyl)benzenesulfonamide]
< 1000 nM | CC(C)(C)c1ccc(S(=O)(=O)Nc2ccc(Cl)cc2-c2nncn2[C@H]2CCNC2)cc1 [Compound 32]

IC50 | Compound
< 1000 nM | Cn1c(-c2cc(Cl)ccc2NS(=O)(=O)c2ccc(C(C)(C)C)cc2)nnc1[C@H]1CCCO1 [Compound 34]
< 1000 nM | CC(C)(C)c1ccc(S(=O)(=O)Nc2ccc(Cl)cc2-c2nncn2C2CCOC2)cc1 (centres unmarked) [Compound 35]
< 1000 nM | Cc1nnc(-c2cc(Cl)c(F)cc2NS(=O)(=O)c2ccc(C(C)(C)C)cc2)n1C [Compound 36, 4-tert-butyl-N-(4-chloro-2-(4,5-dimethyl-4H-1,2,4-triazol-3-yl)-5-fluorophenyl)benzenesulfonamide]
< 1000 nM | CC(C)(C)c1ccc(S(=O)(=O)Nc2cc(F)c(F)cc2-c2nncn2[C@H]2CCNC2)cc1 [Compound 37]
< 1000 nM | CCc1nnc(-c2cc(Cl)ccc2NS(=O)(=O)c2ccc(C(C)(C)C)cc2)n1CC [Compound 38, 4-tert-butyl-N-(4-chloro-2-(4,5-diethyl-4H-1,2,4-triazol-3-yl)phenyl)benzenesulfonamide]
< 1000 nM | CN(C)Cc1nnc(-c2cc(Cl)c(F)cc2NS(=O)(=O)c2ccc(C(C)(C)C)cc2)n1C [Compound 39, 4-tert-butyl-N-(4-chloro-2-(5-((dimethylamino)methyl)-4-methyl-4H-1,2,4-triazol-3-yl)-5-fluorophenyl)benzenesulfonamide]
< 1000 nM | Cn1c(-c2cocn2)nnc1-c1cc(Cl)ccc1NS(=O)(=O)c1ccc(C(C)(C)C)cc1 [Compound 40]
< 1000 nM | COCCc1nnc(-c2cc(Cl)ccc2NS(=O)(=O)c2ccc(C(C)(C)C)cc2)n1C [Compound 41, 4-tert-butyl-N-(4-chloro-2-(5-(2-methoxyethyl)-4-methyl-4H-1,2,4-triazol-3-yl)phenyl)benzenesulfonamide]
< 1000 nM | CC(C)(C)c1ccc(S(=O)(=O)Nc2cc(F)c(F)cc2-c2nncn2C2CCOC2)cc1 (centres unmarked) [Compound 42]
< 1000 nM | CCn1c(-c2cc(Cl)ccc2NS(=O)(=O)c2ccc(C(C)(C)C)cc2)nnc1C(C)C [Compound 43, 4-tert-butyl-N-(4-chloro-2-(4-ethyl-5-isopropyl-4H-1,2,4-triazol-3-yl)phenyl)benzenesulfonamide]
< 1000 nM | CC(C)(C)c1ccc(S(=O)(=O)Nc2cc(F)c(Cl)cc2-c2nncn2C2CCCNC2)cc1 (centres unmarked) [Compound 44]
< 1000 nM | CNCc1nnc(-c2cc(Cl)c(F)cc2NS(=O)(=O)c2ccc(C(C)(C)C)cc2)n1C [Compound 45, 4-tert-butyl-N-(4-chloro-5-fluoro-2-(4-methyl-5-((methylamino)methyl)-4H-1,2,4-triazol-3-yl)phenyl)benzenesulfonamide]
< 1000 nM | CC(C)n1c(-c2cc(Cl)ccc2NS(=O)(=O)c2ccc(C(C)(C)C)cc2)nnc1C1CCOCC1 [Compound 46]
< 1000 nM | CCc1nnc(-c2cc(Cl)c(F)cc2NS(=O)(=O)c2ccc(C(C)(C)C)cc2)n1C1CCOC1 (centres unmarked) [Compound 47]
< 1000 nM | CCNCc1nnc(-c2cc(Cl)c(F)cc2NS(=O)(=O)c2ccc(C(C)(C)C)cc2)n1C [Compound 48, 4-tert-butyl-N-(4-chloro-2-(5-((ethylamino)methyl)-4-methyl-4H-1,2,4-triazol-3-yl)-5-fluorophenyl)benzenesulfonamide]
< 1000 nM | CC(C)NCc1nnc(-c2cc(Cl)c(F)cc2NS(=O)(=O)c2ccc(C(C)(C)C)cc2)n1C [Compound 49, 4-tert-butyl-N-(4-chloro-5-fluoro-2-(5-((isopropylamino)methyl)-4-methyl-4H-1,2,4-triazol-3-yl)phenyl)benzenesulfonamide]
